Results from US6534543B2, “Oxa acids and related compounds for treating skin conditions” (Avon Products, Inc., priority 1996, dated 2003).

System: stratum corneum desquamation
Assay: normalizing effect on stratum corneum desquamation
Source text: Oxa acids easily dissolve in water to concentrations of at least 20 to 30% by weight. […] Dicarboxylic acids of moderate to long chain length, which have straight, all-carbon backbones, are virtually insoluble in water and other aesthetically acceptable vehicles. This severely limits the choice of delivery vehicles for the dicarboxylic acids. The desquamatory activity of such dicarboxylic acids is also questionable.

## O=C(O)CCCCCCCCCCC(=O)O [dodecanedioic acid]
Formulation containing 5% dodecanedioic acid
  normalizing effect on stratum corneum desquamation beyond that of vehicle alone: do not produce any normalizing effect
Formulation containing 10% dodecanedioic acid
  normalizing effect on stratum corneum desquamation beyond that of vehicle alone: do not produce any normalizing effect
